In data set [1] the target is Cathepsin K (Homo sapiens, UniProt P43235). Briefly: Inhibition of humaized rabbit cathepsin K.
Data set [2] addresses T1, Cathepsin K (Oryctolagus cuniculus, UniProt P43236).
T1 sequence (P43236 whole entry): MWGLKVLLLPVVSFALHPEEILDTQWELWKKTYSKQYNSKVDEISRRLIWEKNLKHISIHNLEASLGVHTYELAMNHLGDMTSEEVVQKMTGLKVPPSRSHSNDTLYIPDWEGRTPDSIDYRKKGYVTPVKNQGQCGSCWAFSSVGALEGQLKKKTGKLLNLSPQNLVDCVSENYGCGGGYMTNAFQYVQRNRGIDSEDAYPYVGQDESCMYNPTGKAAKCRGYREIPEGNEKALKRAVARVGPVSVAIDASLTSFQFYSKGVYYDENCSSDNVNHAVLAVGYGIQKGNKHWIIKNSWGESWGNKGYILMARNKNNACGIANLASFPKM
As to the kind of experiment: Inhibition of rabbit cathepsin K.

The species named for data set [3] is Homo sapiens. Briefly: Selectivity for human cathepsin K over human cathepsin L.
For data set [4], the species on record is Homo sapiens. As to the kind of experiment: Selectivity for human cathepsin K over human cathepsin B.
The species entered for data set [5] is Homo sapiens. Briefly: Selectivity for human cathepsin K over human cathepsin S.
For data set [6], the species on record is Oryctolagus cuniculus. Briefly: Inhibition of bone resorption in New Zealand white rabbit by crosslaps ELISA assay. Format: functional, organism-based.
Data set [7] is filed under the species Oryctolagus cuniculus. As to the kind of experiment: Selectivity for IC50 of new Zealand white […] bone resorption over IC50 rabbit cathepsin K. Type of data set: functional.
Data set [8] in a line: Oral bioavailability in rat at 5 mg/kg. Type of data set: ADME, organism-based. To be noted: in vivo.
A short description of data set [9]: Half life in rat at 5 mg/kg, po or 1 mg/kg, iv. Format: ADME, organism-based. To be noted: in vivo.
The nature of data set [10]: AUC in rat at 5 mg/kg, po or 1 mg/kg, iv. Format: ADME, organism-based. The following applies: plasma.
Data set [11] in a line: Oral bioavailability in rat at 10 mg/kg. Format: ADME, organism-based. The following applies: in vivo.
A short description of data set [12]: Half life in rat at 10 mg/kg, po or 5 mg/kg, iv. Format: ADME, organism-based. The following applies: in vivo.
Data set [13] in a line: AUC in rat at 10 mg/kg, po or 5 mg/kg, iv. Type of data set: ADME, organism-based. To be noted: plasma.

SMILES strings stand for the structures.

Take `CSc1ccc(-c2cnccc2C2CCC(F)(F)CC2C(=O)NCC#N)cc1` (racemic): the IC50 at Cathepsin K [1] came out at 1 nM; against Cathepsin K [2], 1 nM; in the data set filed under Oryctolagus cuniculus [6] (Oryctolagus cuniculus) it was 18 nM. In addition, the figures for the Selectivity ratio in the data set listed under Homo sapiens [3], in the data set listed under Homo sapiens [4] and in the data set listed under Homo sapiens [5] were 520, > 10000 and 720, respectively. Also, the Ratio IC50 in the data set listed under Oryctolagus cuniculus [7] stood at 18. The compound also showed a bioavailability in [8] of 65%. Moreover, the half-life in data set [9] was 1 h. The AUC in data set [10] was 8.6 µM·h.

Regarding `CSc1ccc(-c2c[n+]([O-])ccc2C2CCC(F)(F)CC2C(=O)NCC#N)cc1` (racemic), the figures for the IC50 at Cathepsin K [1], against Cathepsin K [2] and in the data set filed under Oryctolagus cuniculus [6] (Oryctolagus cuniculus) were 5 nM, 5 nM and 75 nM, respectively. The Selectivity ratio in the data set listed under Homo sapiens [3] is 460; in the data set filed under Homo sapiens [4] it was > 2000; in the data set listed under Homo sapiens [5], 480. In the data set filed under Oryctolagus cuniculus [7], the Ratio IC50 came out at 15.

For `CSc1ccc(-c2ccccc2C2CCC(F)(F)CC2C(=O)NCC#N)cc1` (racemic; form 2) [listing 1 of 2 here], the IC50 on Cathepsin K [1] was 0.5 nM; in the data set listed under Oryctolagus cuniculus [6], 38 nM.

As for `CSc1ccc(-c2nc(C)sc2C2CCC(F)(F)CC2C(=O)NCC#N)cc1` (racemic), the IC50 against Cathepsin K [1] came out at 0.2 nM; against Cathepsin K [2], 0.1 nM; in the data set filed under Oryctolagus cuniculus [6] (Oryctolagus cuniculus), 17 nM. Besides, the Selectivity ratio in the data set listed under Homo sapiens [3] turned out to be 270; in the data set listed under Homo sapiens [4], 15000; in the data set listed under Homo sapiens [5], 380. Besides, the Ratio IC50 in the data set filed under Oryctolagus cuniculus [7] was determined as 170.

For `CSc1ccc(-c2c[nH]c(=O)cc2C2CCC(F)(F)CC2C(=O)NCC#N)cc1` (racemic), the IC50 at Cathepsin K [1] worked out at 4 nM; against Cathepsin K [2], 5 nM; in the data set filed under Oryctolagus cuniculus [6] (Oryctolagus cuniculus) it was 20 nM. Also, the Selectivity ratio came out at 410 in the data set listed under Homo sapiens [3], 1200 in the data set listed under Homo sapiens [4] and 540 in the data set listed under Homo sapiens [5]. For the same compound, in the data set filed under Oryctolagus cuniculus [7], the Ratio IC50 came out at 4.

With `CSc1ccc(-c2ncccc2C2CCC(F)(F)CC2C(=O)NCC#N)cc1` (racemic), the results for the concentration for half-maximal inhibition (IC50) against Cathepsin K [1], against Cathepsin K [2] and in the data set listed under Oryctolagus cuniculus [6] (Oryctolagus cuniculus) were 1 nM, 1 nM and 10 nM, respectively. In addition, the Selectivity ratio is 540 in the data set filed under Homo sapiens [3], > 10000 in the data set listed under Homo sapiens [4] and 850 in the data set filed under Homo sapiens [5]. Moreover, the Ratio IC50 in the data set filed under Oryctolagus cuniculus [7] worked out at 10.

Consider `CSc1ccc(-c2cn(C)nc2C2CCC(F)(F)CC2C(=O)NCC#N)cc1` (racemic), for which the half-maximal inhibitory concentration (IC50) came to 0.4 nM on Cathepsin K [1], 0.4 nM against Cathepsin K [2] and 41 nM in the data set filed under Oryctolagus cuniculus [6] (Oryctolagus cuniculus). For the same compound, the Selectivity ratio in the data set filed under Homo sapiens [3] was 730; in the data set filed under Homo sapiens [4], 9500; in the data set filed under Homo sapiens [5], 490. Also, the Ratio IC50 in the data set filed under Oryctolagus cuniculus [7] worked out at 103. Moreover, the bioavailability in data set [11] came to 100%. Moreover, the half-life in data set [12] was 4.6 h. Besides, the AUC in data set [13] was 28.9 µM·h.

On to `CSc1ccc(-c2c(C3CCC(F)(F)CC3C(=O)NCC#N)cc[nH]c2=O)cc1` (racemic), for which the IC50 on Cathepsin K [1] came to 8 nM; at Cathepsin K [2], 6 nM; in the data set listed under Oryctolagus cuniculus [6] (Oryctolagus cuniculus), 84 nM. In addition, the Selectivity ratio in the data set filed under Homo sapiens [3] is 430; in the data set filed under Homo sapiens [4] it was > 1250; in the data set listed under Homo sapiens [5] it was 310. For the same compound, in the data set listed under Oryctolagus cuniculus [7], the Ratio IC50 amounted to 14.

As for `CSc1ccc(-c2ccccc2C2CCC(F)(F)CC2C(=O)NCC#N)cc1` (racemic; form 1) [listing 1 of 2 here], the IC50 was determined as 0.3 nM at Cathepsin K [1], 0.3 nM against Cathepsin K [2] and 16 nM in the data set listed under Oryctolagus cuniculus [6]. This compound returned a bioavailability in data set [11] of 39%. Besides, the AUC in data set [13] worked out at 18.5 µM·h.

Consider `CSc1ccc(-c2ccccc2C2CCC(F)(F)CC2C(=O)NCC#N)cc1` (racemic; form 2) [listing 2 of 2 here], for which the Selectivity ratio is 880 in the data set filed under Homo sapiens [3], > 120000 in the data set filed under Homo sapiens [4] and 1100 in the data set filed under Homo sapiens [5]. For the same compound, the Ratio IC50 in the data set filed under Oryctolagus cuniculus [7] came out at 76.

With `N#CCNC(=O)C1CC(F)(F)CCC1c1cnccc1-c1ccc(SCF)cc1` (racemic), the IC50 against Cathepsin K [1] amounted to 2 nM; against Cathepsin K [2], 2 nM; in the data set filed under Oryctolagus cuniculus [6] (Oryctolagus cuniculus), 58 nM. Also, the Selectivity ratio was 260 in the data set filed under Homo sapiens [3], > 5000 in the data set filed under Homo sapiens [4] and 450 in the data set filed under Homo sapiens [5]. In the data set listed under Oryctolagus cuniculus [7], the Ratio IC50 is 29.

Regarding `CSc1ccc(-c2ccccc2C2CCC(F)(F)CC2C(=O)NCC#N)cc1` (racemic; form 1) [listing 2 of 2 here], the Selectivity ratio in the data set listed under Homo sapiens [3] is 780; in the data set filed under Homo sapiens [4] it was > 36000; in the data set listed under Homo sapiens [5], 940. Moreover, in the data set filed under Oryctolagus cuniculus [7], the Ratio IC50 was 53.

As to `CSc1ccc(-c2c(C3CCC(F)(F)CC3C(=O)NCC#N)nnn2Cc2ccccc2)cc1` (racemic), the IC50 at Cathepsin K [1] was determined as 2 nM; on Cathepsin K [2], 9 nM; in the data set filed under Oryctolagus cuniculus [6] (Oryctolagus cuniculus) it was 33 nM. Moreover, the Selectivity ratio in the data set listed under Homo sapiens [3] came to 350; in the data set listed under Homo sapiens [4] it was 1400; in the data set filed under Homo sapiens [5] it was 180. Besides, the Ratio IC50 in the data set filed under Oryctolagus cuniculus [7] turned out to be 4.

(Values after ChEMBL document CHEMBL1139919, “Beta-substituted cyclohexanecarboxamide cathepsin K inhibitors: modification of the 1,2-disubstituted aromatic core” (Bioorg Med Chem Lett, 2007).)
